Assay results taken from US4976874A, “Control of biofouling in aqueous systems by non-polymeric quaternary ammonium polyhalides” (Great Lakes Chemical Corporation, priority 1989, dated 1990).
Like-named read-outs stand apart in the source and are kept apart here.

How the values were obtained:
Pseudomonas aeruginosa = assay: % Kill of Pseudomonas aeruginosa; format: cell-based; conditions: read-out: Percent Kill Pseudomonas aeruginosa; for killing at 0.34 µg/mL: 0.34 ppm free bromine; for killing at 0.23 µg/mL: 0.23 ppm free bromine; for killing at 0.2 µg/mL: 0.20 ppm free bromine; for killing at 0.25 µg/mL: 0.25 ppm free bromine
Excerpt: Quaternary ammonium polyhalides and surfactant mixtures thereof have biocidal properties in aqueous systems where oxidizing biocides are compatible; that is, in aqueous systems having a low halogen demand.
The data in Tables 3-5 indicate that the combination of a water soluble liquid quaternary ammonium polyhalide and a surfactant provides an enhanced efficacy over the liquid quaternary ammonium polyhalide alone. This may be a result of the surface active effect on exopolysaccharides and/or biological membranes.

[1] = Japanese Patent Publication No. 49/14,411; cited from earlier work
[2] = Japanese Patent Publication No. 49/14,411; cited from earlier work; remark: listed apart in the source

`CCCCCCCCN(C)C` [Compound 4, N,N-Dimethyl-N-octylamine hydrotribromide] gave a killing at 0.34 µg/mL (Pseudomonas aeruginosa; 1 min, 1 min) of 99.9%, a killing at 0.34 µg/mL (Pseudomonas aeruginosa; 0.05 h, 3 min) of 100% and a killing at 0.34 µg/mL (Pseudomonas aeruginosa; 5 min, 5 min) of 100%. For the same molecule, the killing at 0.34 µg/mL (Pseudomonas aeruginosa; 10 min, 10 min) was 100%.

`CCOCC[N+](C)(C)C` [Compound 12, N-Ethoxyethyl-N,N,N-trimethylammonium tribromide] gave a killing at 0.34 µg/mL (Pseudomonas aeruginosa; 1 min, 1 min) of 100%, a killing at 0.34 µg/mL (Pseudomonas aeruginosa; 0.05 h, 3 min) of 100% and a killing at 0.34 µg/mL (Pseudomonas aeruginosa; 5 min, 5 min) of 99.9%. The killing at 0.34 µg/mL (Pseudomonas aeruginosa; 10 min, 10 min) was 100%.

Work on `COCCOCC[N+](C)(CCOCCOC)CCOCCOC` [Compound 3, N-Methyl-N,N,N-tris(3,6-dioxaheptyl)ammonium diobromoiodide] yielded a killing at 0.34 µg/mL (Pseudomonas aeruginosa; 1 min, 1 min) of 98.6%, a killing at 0.34 µg/mL (Pseudomonas aeruginosa; 0.05 h, 3 min) of 100% and a killing at 0.34 µg/mL (Pseudomonas aeruginosa; 5 min, 5 min) of 100%. The killing at 0.34 µg/mL (Pseudomonas aeruginosa; 10 min, 10 min) was 100%.

`CC[N+](C)(C)C` [Compound 5, N-Ethyl-N,N,N-trimethylammonium tribromide] gave a killing at 0.34 µg/mL (Pseudomonas aeruginosa; 1 min, 1 min) of 99.9%, a killing at 0.34 µg/mL (Pseudomonas aeruginosa; 0.05 h, 3 min) of 100% and a killing at 0.34 µg/mL (Pseudomonas aeruginosa; 5 min, 5 min) of 100%. For the same molecule, the killing at 0.34 µg/mL (Pseudomonas aeruginosa; 10 min, 10 min) was 100%.

With `CCCCCCCC[N+](C)(C)CCCCCCCC` [Compound 2, N-N-Dimethyl-N,N-dioctylammonium dibromochloride] the killing at 0.23 µg/mL (Pseudomonas aeruginosa; 1 min, 1 min) was 82%, the killing at 0.23 µg/mL (Pseudomonas aeruginosa; 0.05 h, 3 min) was 100% and the killing at 0.23 µg/mL (Pseudomonas aeruginosa; 5 min, 5 min) was 100%. It also gave a killing at 0.23 µg/mL (Pseudomonas aeruginosa; 10 min, 10 min) of 100%.

For `C[N+](C)(C)CCO` [Compound 7, N-(2-Hydroxyethyl)-N,N,N-trimethylammonium tribromide], the killing at 0.2 µg/mL (Pseudomonas aeruginosa; 1 min, 1 min) was 56.6%, the killing at 0.2 µg/mL (Pseudomonas aeruginosa; 0.05 h, 3 min) was 99.6% and the killing at 0.2 µg/mL (Pseudomonas aeruginosa; 5 min, 5 min) was 100%. It also gave a killing at 0.2 µg/mL (Pseudomonas aeruginosa; 10 min, 10 min) of 100%.

Molecule `CCCCCCCCCCCCCC[N+](C)(C)Cc1ccccc1` [Compound 11, N-Benzyl-N,N-dimethyl-N-myristyl-ammonium dibromochloride] has a killing at 0.34 µg/mL (Pseudomonas aeruginosa; 1 min, 1 min) of 100%, a killing at 0.34 µg/mL (Pseudomonas aeruginosa; 0.05 h, 3 min) of 100% and a killing at 0.34 µg/mL (Pseudomonas aeruginosa; 5 min, 5 min) of 100%. For the same molecule, the killing at 0.34 µg/mL (Pseudomonas aeruginosa; 10 min, 10 min) was 100%.

For `CCC[N+](C)(C)CC` [Compound 6, N,N-Dimethyl-N-ethyl-N-propylammonium pentabromide], the killing at 0.34 µg/mL (Pseudomonas aeruginosa; 1 min, 1 min) was 99.6%, the killing at 0.34 µg/mL (Pseudomonas aeruginosa; 0.05 h, 3 min) was 100% and the killing at 0.34 µg/mL (Pseudomonas aeruginosa; 5 min, 5 min) was 100%. For the same molecule, the killing at 0.34 µg/mL (Pseudomonas aeruginosa; 10 min, 10 min) was 100%.

Molecule `CCC[N+](CCOCCOC)(CCOCCOC)CCOCCOC` [Compound 9, N-Propyl-N,N,N-tris(3,6-dioxaheptyl)-ammonium tribromide] has a killing at 0.23 µg/mL (Pseudomonas aeruginosa; 1 min, 1 min) of 21.5%, a killing at 0.23 µg/mL (Pseudomonas aeruginosa; 0.05 h, 3 min) of 82% and a killing at 0.23 µg/mL (Pseudomonas aeruginosa; 5 min, 5 min) of 100%. For the same molecule, the killing at 0.23 µg/mL (Pseudomonas aeruginosa; 10 min, 10 min) was 100%.

`CC[N+](C)(C)C` [Compound 14, N-Ethyl-N,N,N-tri-methylammonium dichlorobromide] showed a killing at 0.2 µg/mL (Pseudomonas aeruginosa; 1 min, 1 min) of 100%, a killing at 0.2 µg/mL (Pseudomonas aeruginosa; 0.05 h, 3 min) of 100% and a killing at 0.2 µg/mL (Pseudomonas aeruginosa; 5 min, 5 min) of 100%. For the same molecule, the killing at 0.2 µg/mL (Pseudomonas aeruginosa; 10 min, 10 min) was 100%.

In the case of `CCCCCCCCCCCCCCCC[N+](C)(C)C.[Br-]` [cetyltrimethylammonium bromide], the biocidal properties [1] is given as “having biocidal properties”.

`COCCOCCN(CCOCCOC)CCOCCOC` [Compound 8, N,N,.N-tris(3,6-Dioxaheptyl)amine hydrotribromide] showed a killing at 0.23 µg/mL (Pseudomonas aeruginosa; 1 min, 1 min) of 99.9%, a killing at 0.23 µg/mL (Pseudomonas aeruginosa; 0.05 h, 3 min) of 100% and a killing at 0.23 µg/mL (Pseudomonas aeruginosa; 5 min, 5 min) of 100%. It also gave a killing at 0.23 µg/mL (Pseudomonas aeruginosa; 10 min, 10 min) of 100%.

Work on `CCC[N+](C)(C)CC` [Compound 13, N,N-Dimethyl-N-ethyl-N-propylammonium dichlorobromide] yielded a killing at 0.25 µg/mL (Pseudomonas aeruginosa; 1 min, 1 min) of 100%, a killing at 0.25 µg/mL (Pseudomonas aeruginosa; 0.05 h, 3 min) of 100% and a killing at 0.25 µg/mL (Pseudomonas aeruginosa; 5 min, 5 min) of 100%. For the same molecule, the killing at 0.25 µg/mL (Pseudomonas aeruginosa; 10 min, 10 min) was 100%.

In the case of `CCCCCCCCCCCCCCCC[N+](C)(C)C` [cetyltrimethylammonium tribromide], the water solubility [2] is listed as “water insoluble” and the biocidal properties [1] is listed as “having biocidal properties”.

With `CCCCCCCCCC[N+](C)(C)CCCCCCCCCC` [Compound 15, N,N-Didecyl-N,N-dimethyl-ammonium dibromochloride] the killing at 0.3 µg/mL (Pseudomonas aeruginosa; 1 min) was 100%, the killing at 0.3 µg/mL (Pseudomonas aeruginosa; 0.05 h) was 100% and the killing at 0.3 µg/mL (Pseudomonas aeruginosa; 5 min) was 100%. It also gave a killing at 0.3 µg/mL (Pseudomonas aeruginosa; 10 min) of 100%.

For `CCCCCCCCCCCCCCCC[n+]1ccccc1` [cetylpyridinium tribromide], the water solubility [2] is listed as “water insoluble” and the biocidal properties [1] is listed as “having biocidal properties”.
